# Experimental data reported in US11395798B2, “O/W type emulsion” (NOF CORPORATION, priority 2015, dated 2022).
# Key:
# [1] = water/octanol; cited from earlier work
# [2] = particle size distribution by dynamic light scattering (Zetasizer Nano ZS); format: physicochemical
# Procedure: The particle size distribution of the prepared emulsion was measured by dynamic light scattering using Zetasizer Nano ZS. The measurement conditions were 1 mM emulsion (40 μL) at 25° C. As a result, in all compositions, the volume median diameter was not more than 100 nm and, when a linear head was used (i.e., the formula (I) wherein X^a and X^b are each X^1), the particle size was not more than 50 nm. The drug recovery rate was not less than 85% (FIG. 1, Table 2).
# EPC and Cholesterol were mixed to achieve 1000 nmol and a PEG lipid was added. Chloroform in an amount equal to that of the lipid ethanol solution was added and the mixture was dried under a nitrogen blow. PBS (1 mL) was added to the lipid membrane after drying and the mixture was stood for 10 min and sonicated by a bath-type sonicator for 3 min to give a particle suspension. The particle size distribution of the prepared particles was measured by dynamic light scattering in the same manner as in Example 1.
# The particle size distribution of the produced emulsion solution was measured by dynamic light scattering similarly to Example 1. As a result, when DOPC was used, the volume median diameter was near 40 nm irrespective of pH.
# An ethanol solution containing 500 nmol as a total of cationic B-2, DOPE, and Cholesterol was prepared, and a PEG lipid was added in the above-mentioned amount. Ethanol was added to make the total amount 200 μL, and the mixture was stood at ice temperature for 15 min. A similarly ice-cooled malic acid buffer (20 mM, pH 3.0, 0-1000 mM NaCl) (200 μL) was mixed within 3 sec under vortex. PBS (NISSUI) (3600 μL) was immediately added thereto. The mixture was subjected to ultrafiltration using Amicon Ultra (Millipore). The centrifugation conditions were 1000 G, 25° C. An operation including addition of 3200 μL of PBS after centrifugation for 10 min was repeated twice and the sample was concentrated to about 500 μL. The concentrate was diluted with PBS to a mass of 1000 mg to give a 0.5 mM (lipid concentration) emulsion. The particle size distribution of the produced emulsion solution was measured by dynamic light scattering similarly to Example 1.
# The volume median diameter and the surface potential were measured using the dynamic light scattering (Zetasizer Nano; Malvern) in the same manner as in Example 1.
# The average particle size of the produced particles was measured in the same manner as in Example 1 and the results are shown in Table 7.
# [3] = B-2:helper lipid:Cholesterol=3:4:3, 15 mol % DMG-PEG2000, malic acid buffer pH 4.0
# [4] = B-2:helper lipid:Cholesterol=3:4:3, 15 mol % DMG-PEG2000, pH 3.0
# [5] = B-2:helper lipid:Cholesterol=3:4:3, 15 mol % DMG-PEG2000, pH 4.0
# [6] = O/W emulsion cationic lipid:DOPE:Cholesterol=3:4:3, 4-Methylumbelliferon 10 mol %, DMG-PEG2000 10 mol %, DSG-PEG2000 2.5 mol %
# [7] = O/W emulsion cationic lipid:DOPE:Cholesterol=3:4:3, 4-Methylumbelliferon 10 mol %, DMG-PEG2000 10 mol %, DSG-PEG2000 2.5 mol %, 1 mM, 25° C.
Molecule,Log Pow [1],other results
CCc1oc2ccccc2c1C(=O)c1cc(Br)c(O)c(Br)c1 [benzbromarone],6.65,
"CCCCCCCC/C=C\CCCCCCCC(=O)OC[C@H](COP(=O)([O-])OCC[N+](C)(C)C)OC(=O)CCCCCCC/C=C\CCCCCCCC [DOPC, dioleoylphosphatidylcholine]",,"volume median diameter ([2]; B-2:helper lipid:Cholesterol=3:4:3, 15 mol % DMG-PEG2000, malic acid buffer pH 3.0): 41.5 nm; volume median diameter [2, 3]: 40.5 nm; volume median diameter ([2]; B-2:helper lipid:Cholesterol=3:4:3, 15 mol % DMG-PEG2000, malic acid buffer pH 5.0): 45.6 nm; PdI [2, 4]: 0.319; PdI [2, 5]: 0.214; PdI ([2]; B-2:helper lipid:Cholesterol=3:4:3, 15 mol % DMG-PEG2000, pH 5.0): 0.196; volume median diameter ([2]; B-2:helper lipid:Cholesterol=3:4:3, irrespective of pH (3.0-5.0)): about 40 nm"
retinol acetate,7.19,
Clc1ccccc1C(c1ccccc1)(c1ccccc1)n1ccnc1 [clotrimazole],4.93,
CCC(C)n1ncn(-c2ccc(N3CCN(c4ccc(OCC5COC(Cn6cncn6)(c6ccc(Cl)cc6Cl)O5)cc4)CC3)cc2)c1=O (centres unmarked) [itraconazole],5.00,
CC(C)=CCN1CCC2(C)c3cc(O)ccc3CC1C2C (centres unmarked) [pentazocine],4.15,
C=CC[C@@H]1/C=C(\C)C[C@H](C)C[C@H](OC)[C@H]2O[C@@](O)(C(=O)C(=O)N3CCCC[C@H]3C(=O)O[C@H](/C(C)=C/[C@@H]3CC[C@@H](O)[C@H](OC)C3)[C@H](C)[C@@H](O)CC1=O)[C@H](C)C[C@@H]2OC [tacrolimus],4.79,
CCCCCCCC/C=C\CCCCCCCC(=O)OCCCN(C)CCSSCCN(C)CCCOC(=O)CCCCCCC/C=C\CCCCCCCC [O-C3M],,"PdI [2, 6]: 0.228; volume median diameter [2, 7]: 38.4 nm"
CCCCCCCCCCCCCCCC(=O)OC[C@@H](NC(=O)C(Cl)Cl)[C@H](O)c1ccc([N+](=O)[O-])cc1 [chloramphenicol palmitate],8.69,
CC(=O)Oc1c(C)c(C)c2c(c1C)CCC(C)(CCC[C@H](C)CCC[C@H](C)CCCC(C)C)O2 (some centres unmarked) [tocopheryl acetate],10.69,
CC(C)(C)c1ccc(C(=O)CCCN2CCC(OC(c3ccccc3)c3ccccc3)CC2)cc1 [ebastine],6.81,
COc1ccc2c(c1)c(CC(=O)OCC(=O)O)c(C)n2C(=O)c1ccc(Cl)cc1 [acemetacin],4.49,
O=C(COCCOCCOCC(=O)Nc1c(I)cc(I)c(C(=O)O)c1I)Nc1c(I)cc(I)c(C(=O)O)c1I [iotroxatic acid],4.32,
CC(C(=O)O)c1ccc2c(c1)CC(=O)c1ccccc1S2 (centres unmarked) [zaltoprofen],4.25,
c1ccc(-c2ccc(C(c3ccccc3)n3ccnc3)cc2)cc1 (centres unmarked) [bifonazole],4.69,
"CCCCCCCC/C=C\CCCCCCCC(=O)OC[C@H](COP(=O)(O)OCCN)OC(=O)CCCCCCC/C=C\CCCCCCCC [DOPE, dioleoylphosphatidylethanolamine]",,"volume median diameter [2, 3]: 90.2 nm; PdI [2, 4]: 0.191; PdI [2, 5]: 0.078"
C[C@]12CC[C@@H]3c4ccc(OC(=O)c5ccccc5)cc4CC[C@H]3[C@@H]1CC[C@@H]2O [estradiol benzoate],5.10,
CCC(=O)OCC(=O)[C@@]1(OC(=O)CC)[C@@H](C)C[C@H]2[C@@H]3CCC4=CC(=O)C=C[C@]4(C)[C@@]3(Cl)[C@@H](O)C[C@@]21C [beclopetasone propionate],4.07,
COc1ccc2c(c1)c(CC(=O)O)c(C)n2C(=O)c1ccc(Cl)cc1 [indomethacin],4.25,
CCCCC/C=C\C/C=C\CCCCCCCC(=O)OCCCN(C)CCSSCCN(C)CCCOC(=O)CCCCCCC/C=C\C/C=C\CCCCC [B-2-3],,"PdI [2, 6]: 0.419; volume median diameter [2, 7]: 34.3 nm"
C[C@H](CCC(=O)O)[C@H]1CC[C@H]2[C@@H]3[C@@H](O)C[C@@H]4C[C@H](O)CC[C@]4(C)[C@H]3CC[C@]12C [ursodeoxycholic acid],4.76,
CCC(C)(Oc1ccc(C2(c3ccc(OC(C)(CC)C(=O)O)cc3)CCCCC2)cc1)C(=O)O (centres unmarked) [clinofibrate],6.33,
CCCCCCCCCCCCCCCC(=O)Oc1ccc2c(C)cc(=O)oc2c1 [4-methylumbelliferone palmitate],7.92,
C#C[C@]1(O)CC[C@H]2[C@@H]3CCC4=Cc5oncc5C[C@]4(C)[C@H]3CC[C@@]21C [danazol],4.94,
O=c1[nH]c2ccccc2n1C1CCN(CCCC(c2ccc(F)cc2)c2ccc(F)cc2)CC1 [pimozide],5.76,

Molecule,Log Pow [1],other results
CC1=C(C/C=C(\C)CCC[C@H](C)CCC[C@H](C)CCCC(C)C)C(=O)c2ccccc2C1=O [phytonadione],10.31,
COC1(O[C@H]2CC[C@H]3[C@@H]4CC[C@H]5C[C@@H]6S[C@@H]6C[C@]5(C)[C@H]4CC[C@]23C)CCCC1 [mepitiostane],6.89,
tocopherol,10.96,
c1ccc2c(c1)Sc1ccccc1N2CC1CN2CCC1CC2 (centres unmarked) [mequitazine],5.20,
C=C1CC[C@H](O)C/C1=C/C=C1\CCC[C@]2(C)[C@@H]([C@H](C)CCCC(C)C)CC[C@@H]12 [cholecalciferol],9.08,
CC(C)=CCC/C(C)=C/CC/C(C)=C/CC/C(C)=C/CC1=C(C)C(=O)c2ccccc2C1=O [menatetrenone],8.79,
CCCCC(=O)O[C@]1(C(=O)CO)[C@@H](C)C[C@H]2[C@@H]3CCC4=CC(=O)C=C[C@]4(C)[C@@]3(F)[C@@H](O)C[C@@]21C [betamethasone valerate],4.14,
[H]/N=C(\N/C(=N/[H])NCCCCCCNC(=N)NC(=N)Nc1ccc(Cl)cc1)Nc1ccc(Cl)cc1 [chlorhexidine],4.58,
CCC(=O)O[C@@H]1CC(=O)O[C@H](C)C/C=C/C=C/[C@H](OC(C)=O)[C@H](C)C[C@H](CC=O)[C@H](O[C@@H]2O[C@H](C)[C@@H](O[C@H]3C[C@@](C)(OC(C)=O)[C@@H](OC(=O)CC)[C@H](C)O3)[C@H](N(C)C)[C@H]2O)[C@H]1OC [midecamycin acetate],5.58,
C=C1CC[C@H](O)C/C1=C/C=C1\CCC[C@]2(C)[C@@H]([C@H](C)/C=C/[C@H](C)C(C)C)CC[C@@H]12 [ergocalciferol],9.15,
Cc1cccc(Nc2ccccc2C(=O)O)c1C [mefenamic acid],4.83,
COC(=O)[C@H]1[C@H]2C[C@@H]3c4[nH]c5cc(OC)ccc5c4CCN3C[C@H]2C[C@@H](OC(=O)c2cc(OC)c(OC)c(OC)c2)[C@@H]1OC [reserpine],4.45,
COC(=O)C1=C(C)NC(C)=C(C(=O)OC2CCCN(Cc3ccccc3)C2)C1c1cccc([N+](=O)[O-])c1 (centres unmarked) [benidipine],5.56,
COc1ccccc1OCCNCC(O)COc1cccc2[nH]c3ccccc3c12 (centres unmarked) [carvedilol],4.07,
CCCC(=O)OC[C@@H](OC(=O)CCC)[C@@H](OC(=O)CCC)[C@H](Cn1c2nc(=O)[nH]c(=O)c-2nc2cc(C)c(C)cc21)OC(=O)CCC [riboflavin butyrate],6.25,
COC1=C(OC)C(=O)C(C/C=C(\C)CC/C=C(\C)CC/C=C(\C)CC/C=C(\C)CC/C=C(\C)CC/C=C(\C)CC/C=C(\C)CC/C=C(\C)CC/C=C(\C)CCC=C(C)C)=C(C)C1=O [ubidecarenone],19.12,
CCCCCCCCCCCCCCCC(=O)OC/C=C(C)/C=C/C=C(C)/C=C/C1=C(C)CCCC1(C)C [retinol palmitate],14.32,
CCCCCCC(=O)OCCN1CCN(CCCN2c3ccccc3Sc3ccc(C(F)(F)F)cc32)CC1 [fluphenazine enanthate],7.29,
CC(C)Oc1ccc2c(=O)c(-c3ccccc3)coc2c1 [ipriflavone],4.25,
C#C[C@]1(O)CC[C@H]2[C@@H]3CCc4cc(O)ccc4[C@H]3CC[C@@]21C [ethinylestradiol],4.11,
Cc1cccc(N(C)C(=S)Oc2ccc3ccccc3c2)c1 [tolnaftate],5.14,
C#C[C@]1(O)CC[C@H]2[C@@H]3CCc4cc(OC)ccc4[C@H]3CC[C@@]21C [mestranol],4.94,
CCOc1nc2cccc(C(=O)OC(C)OC(=O)OC3CCCCC3)c2n1Cc1ccc(-c2ccccc2-c2nnn[nH]2)cc1 (centres unmarked) [candesartancilexetil],7.21,
Cc1cc(O)c2c(c1)O[C@@]1(C)CC[C@H]3C(C)(C)CCC[C@]34CO[C@@H]2[C@H]41 [siccanin],6.10,
